Series [1] relates to shaking behavior in the rat. To be noted: cited from earlier work.
A short description of series [2]: Solubility in solvents. The series is classed as physicochemical. The protocol:
(§1) Icilin is a lemon yellow crystalline powder with a molecular weight of 311 Daltons and a melting point of 229 to 231° C. […] Thus, icilin would be considered as a lipophilic, hydrophobic compound that is not easily miscible with aqueous systems. Analogs of icilin, for example, with acetyoxy, ethyl, fluoro, or trifluoromethyl substitutions, retain similar chemical and physical properties and are included within the scope of this invention.
Menthol, by contrast, is a white crystal with a molecular weight of 156 Daltons and a melting point of 41 to 43° C., a temperature slightly above body temperature. […] Some analogs of menthol, e.g. (+)-neomenthol are colorless liquids at room temperature.

For series [3], the system named is abrasion on finger. The experiment in a line: Example 3: application to abrasion wound on finger. The series is classed as in vivo, human. To be noted: applied directly to abrasion; icilin 0.8 mg. The protocol:
A subject with an abrasion on their finger (caused by friction) of about 1 square centimeter received 0.8 mg of icilin applied directly to the wound with a swab stick.

For series [4], the system named is receptors for cold. To be noted: cited from earlier work.
Series [5] has as its system anorectal area of subject with inflamed hemorrhoids. The experiment in a line: Example 2: anorectal administration in inflamed hemorrhoids. The series is classed as in vivo, human. To be noted: icilin 20 mg/ml in propylene glycol admixed with saline laxative, 2 ml emulsion instilled into rectum. The protocol: A subject with inflamed hemorrhoids self-administered a commercial suppository, shaped as a 1.5-inch bullet, containing 25 mg of hydrocortisone. The suppository was coated with 5 mg of icilin and 5 mg of WS-23, a menthol analog. Cooling sensations were felt within 5 minutes in the anorectal area extending to the scrotum. Relief of discomfort and itch in the anorectal area lasted for longer than 3 hours. In a similar experiment, icilin, dissolved 20 mg/ml in propylene glycol was admixed with a isotonic sodium chloride solution laxative (containing monobasic sodium phosphate and dibasic sodium phosphate salts), and 2 ml of the emulsion was instilled into the rectum. Again, cooling sensations with relief of itch and discomfort were obtained for 2 hours.

Series [6] has as its system mouth, throat and upper alimentary tract. The experiment in a line: Example 7: chewing gum. The series is classed as in vivo, human. The protocol:
Two mg of icilin was spread between two wafers of a fruit-flavored chewing gum and chewed for 5 minutes by a subject. […] But after 12 minutes general sensations of coolness were felt in the thoracic internal structures behind the sternum, in the epigastric area. These cooling effects lasted for about 45 minutes. By contrast, the chewing of mentholated gum or mentholated candy, produced after an initial harsh taste, strong cooling of the mouth and throat that lasted only about 10 minutes.
This experiment illustrates important pharmacokinetic differences between icilin and menthol. The effects of mentholated gum are immediate and localized to the mouth and throat. […] Further protection of the icilin by standard encapsulation technology will allow it to reach the distal portions of the gastrointestinal tract such as the lower ileum and colon where it may exert its pharmacological effects as a cold receptor agonist.

The target of series [7] is TRP(M8) receptor (Rattus norvegicus, UniProt Q8R455). To be noted: cloned and transfected TRP(M8) receptor; McKemy et al. 2002; cited from earlier work.
Chain of TRP(M8) receptor (Q8R455 whole entry): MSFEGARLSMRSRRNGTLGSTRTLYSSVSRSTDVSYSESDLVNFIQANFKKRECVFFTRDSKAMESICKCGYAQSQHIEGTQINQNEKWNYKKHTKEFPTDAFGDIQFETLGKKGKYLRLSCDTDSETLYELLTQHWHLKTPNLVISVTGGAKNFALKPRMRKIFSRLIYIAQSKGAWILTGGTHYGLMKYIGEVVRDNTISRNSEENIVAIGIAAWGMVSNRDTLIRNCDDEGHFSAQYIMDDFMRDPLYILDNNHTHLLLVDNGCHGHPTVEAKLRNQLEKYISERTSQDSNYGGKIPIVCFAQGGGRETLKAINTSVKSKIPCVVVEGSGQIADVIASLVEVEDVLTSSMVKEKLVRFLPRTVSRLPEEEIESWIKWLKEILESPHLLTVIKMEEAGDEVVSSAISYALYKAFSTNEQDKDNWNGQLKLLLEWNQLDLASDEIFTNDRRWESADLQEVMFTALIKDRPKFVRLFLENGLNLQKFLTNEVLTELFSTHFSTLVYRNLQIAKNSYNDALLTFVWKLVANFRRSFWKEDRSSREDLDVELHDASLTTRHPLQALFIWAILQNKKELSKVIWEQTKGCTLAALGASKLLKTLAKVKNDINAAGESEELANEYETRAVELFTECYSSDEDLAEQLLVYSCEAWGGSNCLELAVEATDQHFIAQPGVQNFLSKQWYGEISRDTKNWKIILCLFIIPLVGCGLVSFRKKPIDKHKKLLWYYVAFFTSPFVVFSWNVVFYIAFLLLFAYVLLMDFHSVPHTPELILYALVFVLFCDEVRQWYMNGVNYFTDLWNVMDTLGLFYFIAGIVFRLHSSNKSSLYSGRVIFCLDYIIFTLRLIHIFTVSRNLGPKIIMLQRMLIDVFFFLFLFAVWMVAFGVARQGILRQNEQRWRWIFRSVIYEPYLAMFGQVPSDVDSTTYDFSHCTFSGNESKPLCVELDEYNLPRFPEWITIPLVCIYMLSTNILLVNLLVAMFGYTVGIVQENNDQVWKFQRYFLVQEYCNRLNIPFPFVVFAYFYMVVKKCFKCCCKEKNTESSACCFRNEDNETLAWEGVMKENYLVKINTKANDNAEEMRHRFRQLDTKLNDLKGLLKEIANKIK
For series [8], the system named is surfaces of the human body. The series can be described thus: Irritation upon contact with the surfaces of the human body. The series is classed as in vivo.
Series [9] concerns rats. Particulars: cited from earlier work.
Series [10] can be described thus: Stability at room temperature. The series is classed as physicochemical. The protocol:
as §1

Series [11] relates to nasal cavity of subject with hay fever. The series can be described thus: Examples 5 and 6: nasal administration in subject with hay fever. The series is classed as in vivo, human. To be noted: for effect on nasal discharge, urge to sneeze, itchy eyelids: inhaled via the nose, hay fever subject. The protocol: A subject, suffering from hay fever (in this case, seasonal allergy to grass pollen) stopped taking antihistamines for 24 hours and inhaled via the nose 0.5 mg or 2 mg (on 2 separate occasions) of icilin in powder form.
Icilin, dissolved in propylene glycol, was added to a commercial preparation of an anti-allergy nasal spray containing fluticasone to attain a concentration of about 10 mg icilin/ml solution.

The test system of series [12] is lower eyelid. The experiment in a line: Example 4: application to lower eyelid. The series is classed as in vivo, human. Particulars: for duration of cooling/refreshing effect: icilin 10 mg/ml solution. The protocol: A small quantity of a 10 mg/ml solution of icilin dissolved in propylene glycol was applied with a cotton swab stick to the lower eyelid of a subject. […] This effect lasted for about 45 minutes. […] The eyelids smarted from the harsh irritant actions of menthol. The individual blinked and the eyes were momentarily closed with a small degree of lachrymation. But, after about 1 minute, this discomfort dissipated and the cooling sensations of menthol were felt on the eyelid. The sensations were refreshing and lasted for about 15 minutes and accompanied by a minty odor.
By contrast, menthol cannot be used in eye drops because of its irritant actions.

Series [13] has as its system skin or mucous membranes. The series can be described thus: Duration of cooling effect after application to skin or mucous membranes. The series is classed as in vivo, human. Particulars: applied to the skin or mucous membranes, regardless of dose. From the text: The physico-chemical differences between icilin and menthol confer unique advantages to icilin for manipulating sensory nerve discharges in certain defined clinical situations, as described hereinafter. The first advantage is the site of delivery: menthol cannot be delivered to the eyelids and its environs, the nasal membranes, or the mucous membranes of the anogenital region at high concentrations because it is pungent, stings and irritates. Icilin, on the other hand, can be administered to these sites because it is non-irritating. A second major advantage of icilin is its duration of action. Icilin's actions can be localized at its site of application for a prolonged period because of its lipophilic characteristics and because it can be administered as a powder or dispersed (either in solid form or solubilized) as an emulsion. By contrast, menthol is volatile and rapidly re-distributes and metabolizes in the body so its duration of action is relatively short. For example, icilin applied to nasal membranes can produce refreshing sensations for up to 3 hours.
In practicing the present invention, the topical administration of icilin relieves itching, especially when given in combination with a menthol analog. […]

Where two headings read alike, the source gives them in different places. Bounds are passed on as bounds.

This is an account of results in patent US6919348B2, “Therapeutic 1,2,3,6-tetrahydropyrimidine-2-one compositions and methods therewith” (priority 2002, dated 2005).

In the case of `O=C1NC(c2cccc([N+](=O)[O-])c2)=CCN1c1ccccc1O` [icilin, 1-[2-hydroxy]-4-[3-nitrophenyl]-1,2,3,6-tetrahydropyridimine-2-one], in [1] (rat, molar basis), the “potency relative to menthol on shaking behavior” value is given as 400 times. Moreover, in series [1] (rats and monkeys, accompanied by hyperthermia, hyperactivity and ptosis), the behavioral syndrome elicited entry is listed as “wet dog shake behavior”. For the same molecule, in series [2], the “solubility in ethanol and acetone” value is “slightly soluble”. Besides, in series [2], the solubility in water entry is recorded as “virtually insoluble”. The “solubility in organic solvents” value in [2] (dimethylsulfoxide, nitromethane, dimethylacetamide and propanediols) was “readily soluble”. For the same molecule, in [3], the “effect on pain and coldness at wound site” value was “pain was lessened”. Further, the sensation elicited result is “prickling sensations of cold” in series [4] (0.1 mg applied to the dorsum of the tongue); “sensations of coolness on the cheeks and on the inner surfaces of the arms and legs” in series [4] (ingestion of 6 mg, on one occasion out of three). In addition, in [5], the “duration of cooling sensations with relief of itch and discomfort” value stood at 2 h. In addition, the “coolness in the mouth or throat” value in [6] (2 mg in chewing gum) is recorded as “No sensations of coolness”. In [6] (2 mg in chewing gum chewed 5 minutes, behind the sternum, epigastric area), the “onset of general sensations of coolness” value came to 12 min. Also, the “duration of cooling effects” value in series [6] (2 mg in chewing gum, thoracic/epigastric area) is reported as “about 45 minutes”. In addition, the “potency relative to menthol in eliciting ion channel current changes” value in series [7] was “about 200 times”. For the same molecule, the “irritation upon contact with body surfaces” value in series [8] (powder) is listed as “non-irritating”. Also, in series [9], the “toxicity relative to menthol, by oral median lethal dose” value was “less toxic than menthol”. Also, in series [10], the stability entry is “stable at room temperature”. For the same molecule, in series [11] (0.5 mg or 2 mg powder inhaled via the nose), the “duration of sense of free and unobstructed airflow / cold sensations” value is “about 3 hours”. Further, the “duration of refreshing sensations” value in series [11] (applied to nasal membranes) was “up to 3 hours”. Moreover, the “effect on nasal discharge, urge to sneeze, itchy eyelids” value in series [11] is “curtailed and terminated”. The “irritation of the eyelid” value in series [12] is listed as “without acute irritation”. In addition, the “onset of prickling sensations of cold” value in series [12] (10 mg/ml in propylene glycol) is at most 10 min. In series [12] (menthol crystals), the “duration of cooling/refreshing effect” value is listed as “about 45 minutes”.

Regarding `CC1CCC(C(C)C)C(O)C1` (stereo not drawn) [menthol, reference compound], in series [2], the solubility in ethanol result was “soluble” and the solubility in water entry was “slightly soluble”. For the same molecule, the “effect on pain and coldness at wound site” value in series [3] is reported as “did not elicit sensations of coldness or pain reduction”. Besides, in series [13], the “duration of cooling sensations” value lay in the range of 15 to 30 min. In addition, the irritation result in series [8] (high concentrations, eyes) is on record as “irritating to the eyes”. Also, in series [11] (0.8 mg crystals inhaled), the “duration of cooling effect” value lay within 25 to 30 min. In series [11] (inhalation of crystals), the “irritation on nasal inhalation” value is reported as “initial burning sensation”. Further, in series [11], the “effect on nasal discharge, urge to sneeze, itchy eyelids” value is “No overt beneficial effects”. In [12], the “irritation of the eyelid” value was “sharp discomfort”. In addition, in [12] (menthol crystals), the “duration of cooling/refreshing effect” value is “about 15 minutes” and the “time until discomfort dissipated” value was “about 1 minute”.
